Measurements taken from US12648924B2, “Prevention and treatment of effects of aging and age-associated disorders with ketone supplementation” (priority 2020, dated 2026).

System: VM-M3 cells
Assay: KDE in VM-M3 model of cancer anorexia cachexia syndrome (Experiment 4c)
Assay type: in vivo, VM/Dk mice
Settings: 30% KDE in diet
Text: Animals: Five breeding pairs of the VM/Dk strain of mice were used to establish and propagate a VM/Dk mouse colony in the University of South Florida (USF) Morsani College of Medicine Vivarium according to standard husbandry protocol. Male and female VM/Dk mice between 10-23 weeks of age were singly housed to accurately assess individual animal food intake. Bodyweight and food intake were tracked daily prior to and post-social isolation to ensure bodyweight and food intake normalized prior to cell inoculation (Table 1). Animals were distributed into one of four groups: Sham Male (SH-M), Sham Female (SH-F), Cancer Male (CA-M), and Cancer Female (CA-F). Each cancer animal was matched with a sham animal of equivalent sex, bodyweight, age, and food intake (FIGS. 8A-8B) to ensure appropriate cancer and sex-specific comparisons. To determine KDE-induced effects in CACS, VM/Dk animals were distributed into one of three groups: KDE+VM-M3, VM-M3, and Sham with equivalent sex, bodyweight, age and food intake at baseline (FIG. 13A). One premature death occurred in SH-F (Experiment 1a) and Sham (Experiment 4c) groups immediately post-inoculation. To determine KDE-induced effects post-LPS administration, VM/Dk animals were distributed into two groups (FIGS. 14A-14B): KDE+LPS and LPS of equivalent bodyweights. All procedures were approved by the USF Institutional Animal Care and Use Committee (USF IACUC; Protocol Number R1900 & R5829) and performed under strict adherence to the NIH Guide for the Care and Use of Laboratory Animals.
VM-M3 Cell and Lipopolysaccharide Implantation: For VM-M3 implantation in the model characterization experiments (FIG. 1-5; FIG. 8-12), ˜1×10^6 VM-M3 cells (T. Seyfried, Boston College) in 300 μL sterile PBS (CA-M and CA-F) or 300 μL sterile PBS-only (SH-M and SH-F) were injected subcutaneously into the left abdominal flank resulting in primary tumor formation at the injection site, and subsequently systemically metastasizes to most major organs, namely the liver, kidneys, spleen, lungs, and brain. […] This method of implantation further minimized variability in markers of tumor progression, and therefore provides a useful optional method technique in the VM-M3 model for efficient analysis of potential therapeutic agents. To determine KDE-induced effects on CACS, 1×10^6 VM-M3 cells in 300 μL sterile PBS (KDE+VM-M3 and VM-M3) or 300 μL sterile PBS-only (Sham) were administered intraperitoneally (FIG. 6; FIG. 13). For LPS administration in the septic atrophy model, LPS (Escherichia coli 055:B5; L2880; Sigma-Aldrich, St. Louis, MO) was diluted in sterile PBS and administered intraperitoneally at 10 mg/kg as pilot work indicated a maximal, yet non-fatal, ˜15% bodyweight reduction at 10 mg/kg dose.
Tumor Growth and Metastasis: Tumor growth was monitored weekly as a measure of bioluminescence using the Xenogen IVIS Spectrum system (Caliper LS, Hopkinton, MA). Data acquisition and analysis was performed using the Living Image@ software (Caliper LS). Approximately 15 minutes prior to in vivo imaging, VM/Dk mice received an intraperitoneal injection of D-Luciferin (50 mg/kg; 88293, Thermo Fisher Scientific; Waltham, MA). Bioluminescent signal was obtained using the IVIS Lumina cooled CCD camera system in both prone and supine positions. As only the cancer cells were transfected with the luciferase gene, bioluminescent signal (photons/sec) of the whole animal was measured and tracked over time as an indicator of tumor burden and metastatic spread. At EOL, primary tumor, spleen, liver, and adipose tissue were gathered and saturated with D-Luciferin (10 μL D-Luciferin+PBS/g tissue at 5 mg D-Luciferin/mL PBS dilution) for 5 mins and imaged to determine tumor burden. Ascites fluid was imaged 15 minutes after resuspension with D-Luciferin (20 μL D-Luciferin+PBS/mL ascites fluid at 5 mg D-Luciferin/mL PBS dilution) to assess presence of circulating tumor cells. […]

[1] = weekly, KDE+VM-M3 vs VM-M3 and Sham

CC(=O)CC(=O)OCCC(C)OC(=O)CC(C)=O (stereo not shown) [KDE, R/S 1,3-butanediol acetoacetate diester]
blood lactate (KDE+VM-M3 vs VM-M3): No difference
food intake (anorexic phenotype) (KDE+VM-M3 vs VM-M3): attenuation of the predicted anorexic phenotype
bodyweight (daily, KDE+VM-M3 vs VM-M3 and Sham): lower bodyweight
ascites fluid weight (week 3, KDE+VM-M3 group (VM-M3 alone 3.0 g, Sham 0 g)): 1.9 g
ascites fluid (surrogate marker of metastatic spread) (week 3, KDE+VM-M3 vs VM-M3): significantly reduced
intraperitoneal adipose tissue weight (adipose tissue catabolism) (week 3, KDE+VM-M3 vs VM-M3): unable to alter adipose tissue catabolism
serum IGF-1 (week 3, KDE+VM-M3 vs VM-M3): did not alter circulating anabolic hormone levels
serum insulin (week 3, KDE+VM-M3 vs VM-M3): did not alter circulating anabolic hormone levels
skeletal muscle atrophy (Gastrocnemius, Soleus, Quadricep, Tibialis Anterior, Hind Limb weights) (week 3, KDE+VM-M3 vs VM-M3): did attenuate muscle atrophy
cardiac tissue weight set to baseline bodyweight (week 3, across groups): unaltered
whole animal tumor burden (in vivo bioluminescence) (weekly imaging, KDE+VM-M3 vs VM-M3): non-significant reductions
blood glucose [1]: reductions in blood glucose
circulating ketones [1]: sustained elevations
